Experimental data as given in paper PMC6980506, “Comparative pharmacokinetics and pharmacodynamics of the advanced Retinol-Binding Protein 4 antagonist in dog and cynomolgus monkey” (PLoS ONE, 2020).
Where “and” joins values, the source holds several entries; their conditions need not be identical. Equal values may be shown once. Read-outs that look alike come from different tables or passages of the source.

Columns and labels:
[1] = set-up: method as in PMID 26181715; conditions: rat liver microsomes; cited from earlier work
[2] = Single dose pharmacokinetic study in beagle dog; type: in vivo
Experimental: Pharmacokinetic studies were conducted in male beagle dogs and male cynomolgus monkeys at SRI International, Menlo Park, CA. General procedures for animal care and housing were in accordance with the National Research Council (NRC) Guide for the Care and Use of Laboratory Animals (1996) and the Animal Welfare Standards incorporated in 9 CFR Part 3, 1991 and complied with guidelines set forth by the ARVO Animal Statement for the Use of Animals in Ophthalmic and Vision Research. During the course of the PK experiments, cynomolgus monkeys were individually housed in stainless steel primary enclosures in an AAALAC-accredited facility. Animals were fed a commercial monkey chow, and supplemental food was provided (fresh fruits, vegetables, seeds, and nuts). Reverse osmosis-purified drinking water was available at all times. Cynomolgus monkeys were maintained on a 12:12 hour light:dark cycle at the 64–84°F temperature and 30–70% humidity. Monkeys had access to enrichment opportunities (grooming devices, foraging devices, activity panels and mirrors) and were provided auditory stimuli and human interaction enrichment throughout the study. Blood samples were collected by venipuncture of a peripheral vein. Animals were acclimated to the squeeze back mechanism in their home cage by repeated, short periods of restraint during general husbandry procedures for at least 2 weeks prior to dosing. Animal were not removed from their cages for collection, and no anesthesia/analgesic agents were used for blood collection. […] For PK experiments, beagle dogs were individually housed in enclosed run (≥ 4 ft x 6 ft). Dogs were exposed to their daily ration of food, Harlan Teklad 2025C Certified Global 25% Protein Dog Diet. Water was provided from the public water supply (municipal tap water) ad libitum. Dogs were maintained on a 12:12 hour light:dark cycle at the 72–73°F temperature and 40–71% humidity. Every effort was made to minimize, if not eliminate, pain and suffering in all animals in this study. No restraining devices were used in blood collecting procedures. Dogs were gentle hand-held to restrain by trained technicians with the dogs foreleg extended for sample collection of blood from cephalic vein. Animals were awake during blood sample collection with no anesthesia/analgesic agents used, and positive reinforcement by the technician was provided following collection. […] All dogs were released back to the colony after the study was completed. Male beagle dogs and male cynomolgus monkey received a single i.v. dose of a test compound at 0.5 mg kg^−1 (dog) and 1 mg kg^−1 (monkey) or a single p.o. dose of a test compound of at 2 mg kg^−1 (dog) and 5 mg kg^−1 (monkey). The number of animals that was used in PK experiments is 3 per study group. Intravenous administration vehicle was 3% DMA/45% PEG300/12% ethanol/40% sterile water; p.o. vehicle was 2% Tween 80 in 0.9% saline. […] Blood samples were processed to plasma. Following protein extraction with acetonitrile, compound concentrations in plasma were measured by LC-MS/MS. The plasma drug level data were analyzed using WinNonlin software package; Model 201 (for i.v. bolus administration);was used for the analysis of i.v. data, and Model 200 (for extravascular administration) was used for the analysis of the p.o. data. Aliquots of pre-dose plasma samples, as well as aliquots of plasma PK samples, were used for the analysis of the plasmabiomarker, RBP4.

Cc1cc(C(=O)O)nc(N2C[C@H]3C[C@@H](c4ccccc4C(F)(F)F)C[C@H]3C2)n1 [BPN-14136]
stability in liver microsomes, % remaining at 30 min [1]: > 90%
%F, bioavailability ([2]; Dog, 2.0 mg kg^−1 p.o. vs 0.5 mg kg^−1 i.v.): 84.2 ± 10.4%
plasma concentrations of compound ([2]; dog plasma at 24, 36, and 48 hours after 2 mg kg^−1 oral dosing): 70 to 500 ng/mL
Plasma level, Individual animals ([2]; male beagle dog, iv 0.5 mg/kg, 0.083 hr, 0.5 mg/kg): 2750 ng/mL and 2650 ng/mL
Plasma level, Individual animals ([2]; male beagle dog, iv 0.5 mg/kg, 0.25 hr, 0.5 mg/kg): 2090 ng/mL and 2140 ng/mL
Plasma level, Individual animals ([2]; male beagle dog, iv 0.5 mg/kg, 0.5 hr, 0.5 mg/kg): 1820 ng/mL and 1800 ng/mL
Plasma level, Individual animals ([2]; male beagle dog, iv 0.5 mg/kg, 1 hr, 0.5 mg/kg): 1270 ng/mL and 1380 ng/mL
Plasma level, Individual animals ([2]; male beagle dog, iv 0.5 mg/kg, 2 hr, 0.5 mg/kg): 1060 ng/mL and 1000 ng/mL
Plasma level, Individual animals ([2]; male beagle dog, iv 0.5 mg/kg, 4 hr, 0.5 mg/kg): 492 ng/mL and 458 ng/mL
Plasma level, Individual animals ([2]; male beagle dog, iv 0.5 mg/kg, 6 hr, 0.5 mg/kg): 284 ng/mL and 281 ng/mL
Plasma level, Individual animals ([2]; male beagle dog, iv 0.5 mg/kg, 8 hr, 0.5 mg/kg): 203 ng/mL and 207 ng/mL
Plasma level, Individual animals ([2]; male beagle dog, iv 0.5 mg/kg, 12 hr, 0.5 mg/kg): 69.2 ng/mL and 141 ng/mL and 111 ng/mL
Plasma level, Individual animals ([2]; male beagle dog, iv 0.5 mg/kg, 24 hr, 0.5 mg/kg): 186 ng/mL and 171 ng/mL
Plasma level, Individual animals ([2]; male beagle dog, iv 0.5 mg/kg, 36 hr, 0.5 mg/kg): 47.1 ng/mL and 42.5 ng/mL
Plasma level, Individual animals ([2]; male beagle dog, iv 0.5 mg/kg, 48 hr, 0.5 mg/kg): 102 ng/mL and 93.0 ng/mL
Plasma level, Individual animals ([2]; male beagle dog, po 2 mg/kg, 0.25 hr, 2 mg/kg): 9280 ng/mL and 4890 ng/mL
Plasma level, Individual animals ([2]; male beagle dog, po 2 mg/kg, 0.5 hr, 2 mg/kg): 7730 ng/mL and 6080 ng/mL
Plasma level, Individual animals ([2]; male beagle dog, po 2 mg/kg, 1 hr, 2 mg/kg): 6080 ng/mL and 5100 ng/mL
Plasma level, Individual animals ([2]; male beagle dog, po 2 mg/kg, 2 hr, 2 mg/kg): 4460 ng/mL and 4300 ng/mL
Plasma level, Individual animals ([2]; male beagle dog, po 2 mg/kg, 4 hr, 2 mg/kg): 2560 ng/mL and 2080 ng/mL
Plasma level, Individual animals ([2]; male beagle dog, po 2 mg/kg, 8 hr, 2 mg/kg): 971 ng/mL and 885 ng/mL
Plasma level, Individual animals ([2]; male beagle dog, po 2 mg/kg, 10 hr, 2 mg/kg): 581 ng/mL and 690 ng/mL
Plasma level, Individual animals ([2]; male beagle dog, po 2 mg/kg, 12 hr, 2 mg/kg): 391 ng/mL and 753 ng/mL
Plasma level, Individual animals ([2]; male beagle dog, po 2 mg/kg, 24 hr, 2 mg/kg): 542 ng/mL and 277 ng/mL
Plasma level, Individual animals ([2]; male beagle dog, po 2 mg/kg, 36 hr, 2 mg/kg): 95.3 ng/mL and 105 ng/mL
Plasma level, Individual animals ([2]; male beagle dog, po 2 mg/kg, 48 hr, 2 mg/kg): 152 ng/mL and 160 ng/mL and 67.0 ng/mL
concentration at 0.083 h ([2]; male, beagle, dog, plasma, iv, 0.5 mg/kg, male beagle dog, iv 0.5 mg/kg, 0.083 hr, read-out: Plasma level, Individual animals): 2660 ng/mL
concentration at 0.083 h ([2]; male, beagle, dog, plasma, iv, 0.5 mg/kg, male beagle dog, iv 0.5 mg/kg, 0.083 hr, read-out: Plasma level, Mean): 2690 ng/mL
concentration at 0.25 h ([2]; male, beagle, dog, plasma, iv, 0.5 mg/kg, male beagle dog, iv 0.5 mg/kg, 0.25 hr, read-out: Plasma level, Individual animals): 2000 ng/mL
concentration at 0.25 h ([2]; male, beagle, dog, plasma, iv, 0.5 mg/kg, male beagle dog, iv 0.5 mg/kg, 0.25 hr, read-out: Plasma level, Mean): 2080 ng/mL
concentration at 0.5 h ([2]; male, beagle, dog, plasma, iv, 0.5 mg/kg, male beagle dog, iv 0.5 mg/kg, 0.5 hr, read-out: Plasma level, Individual animals): 1690 ng/mL
concentration at 0.5 h ([2]; male, beagle, dog, plasma, iv, 0.5 mg/kg, male beagle dog, iv 0.5 mg/kg, 0.5 hr, read-out: Plasma level, Mean): 1770 ng/mL
concentration at 1 h ([2]; male, beagle, dog, plasma, iv, 0.5 mg/kg, male beagle dog, iv 0.5 mg/kg, 1 hr, read-out: Plasma level, Individual animals): 1500 ng/mL
concentration at 1 h ([2]; male, beagle, dog, plasma, iv, 0.5 mg/kg, male beagle dog, iv 0.5 mg/kg, 1 hr, read-out: Plasma level, Mean): 1380 ng/mL
concentration at 2 h ([2]; male, beagle, dog, plasma, iv, 0.5 mg/kg, male beagle dog, iv 0.5 mg/kg, 2 hr, read-out: Plasma level, Individual animals): 1020 ng/mL
concentration at 2 h ([2]; male, beagle, dog, plasma, iv, 0.5 mg/kg, male beagle dog, iv 0.5 mg/kg, 2 hr, read-out: Plasma level, Mean): 1030 ng/mL
concentration at 4 h ([2]; male, beagle, dog, plasma, iv, 0.5 mg/kg, male beagle dog, iv 0.5 mg/kg, 4 hr, read-out: Plasma level, Individual animals): 442 ng/mL
concentration at 4 h ([2]; male, beagle, dog, plasma, iv, 0.5 mg/kg, male beagle dog, iv 0.5 mg/kg, 4 hr, read-out: Plasma level, Mean): 464 ng/mL
concentration at 6 h ([2]; male, beagle, dog, plasma, iv, 0.5 mg/kg, male beagle dog, iv 0.5 mg/kg, 6 hr, read-out: Plasma level, Individual animals): 308 ng/mL
concentration at 6 h ([2]; male, beagle, dog, plasma, iv, 0.5 mg/kg, male beagle dog, iv 0.5 mg/kg, 6 hr, read-out: Plasma level, Mean): 291 ng/mL
concentration at 8 h ([2]; male, beagle, dog, plasma, iv, 0.5 mg/kg, male beagle dog, iv 0.5 mg/kg, 8 hr, read-out: Plasma level, Individual animals): 217 ng/mL
